Laboratory results from PubChem BioAssay AID1645864 (Buhrlage Lab, Dana-Farber Cancer Institute and Novartis …, 2021).
Active and inactive are the calls of the source.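 The calls were made as follows: active = maximal inhibition of USP17 at or above 30% in the confirmation dose-response, a value not among the printed readouts; inactive = the rest.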

molecular target: Ubiquitin carboxyl-terminal hydrolase 17-like protein 5 (Homo sapiens) (UniProt A8MUK1); test: ubiquitin-specific protease 17 DUB inhibitors, concentration-effect assay, cell-free, verification of initial screening actives (AID 1645864); conditions: purified USP17, ubiquitin-rhodamine cleavage fluorescence, 3 h
Sequence (A8MUK1 whole entry, looked up): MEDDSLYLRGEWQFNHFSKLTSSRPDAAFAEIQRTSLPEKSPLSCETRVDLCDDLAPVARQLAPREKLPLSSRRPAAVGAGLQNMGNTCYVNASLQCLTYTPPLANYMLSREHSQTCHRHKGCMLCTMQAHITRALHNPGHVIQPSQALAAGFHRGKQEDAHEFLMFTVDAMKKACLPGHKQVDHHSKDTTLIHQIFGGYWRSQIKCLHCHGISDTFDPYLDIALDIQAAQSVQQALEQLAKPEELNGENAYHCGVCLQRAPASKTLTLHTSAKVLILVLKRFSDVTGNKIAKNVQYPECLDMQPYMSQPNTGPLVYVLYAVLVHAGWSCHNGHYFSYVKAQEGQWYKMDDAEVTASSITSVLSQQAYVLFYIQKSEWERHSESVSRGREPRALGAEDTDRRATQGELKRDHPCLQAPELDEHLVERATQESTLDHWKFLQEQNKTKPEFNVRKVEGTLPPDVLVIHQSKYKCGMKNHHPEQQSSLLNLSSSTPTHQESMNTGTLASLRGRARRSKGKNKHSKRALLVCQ

| SMILES | IC50 |
| --- | --- |
| CCCCN(C)C(=O)c1cc2c(=O)n3cccc(C)c3nc2n1Cc1ccccc1 | 39.8 µM |
| CC(C)Cn1cc(OC(=O)c2ccc(F)cc2)c2c1nc(-c1ccc(F)cc1)n1c3ccccc3nc21 | > 50 µM (inactive) |
| COc1ccc(Cl)cc1NC(=O)c1cc(-c2ccccn2)n[nH]1 | 0.202 µM |
| COc1cccc(NC(=O)Nc2ccc3nc4n(c(=O)c3c2)CCCC4)c1 | 9.31 µM |
| CC(OC(=O)CNC(=O)c1ccc(Br)cc1)C(=O)Nc1ccc2c(c1)OCCO2 (centres undefined) | 30.4 µM |
| COc1ccc(-c2ccnc(-c3ccc(OCc4cccc(F)c4)cc3)n2)cc1 | 37.2 µM |
| CCn1cc2c(n1)c(=O)n(Cc1ccccc1)c(=O)n2CC(=O)Nc1ccc(OC)cc1 | 2.91 µM |
| Cc1cc(O)c2c3c(c(O)c4c(c13)O[C@@H](C)C4(C)C)C(=O)C2=O | 24.5 µM |
| CNC(=O)c1cc2c(=O)n3cccc(C)c3nc2n1Cc1ccccc1 | 2.36 µM |
| Cc1ccc(C)c(NC(=O)CCc2nc(CSc3nc4ccccc4o3)no2)c1 | 33.9 µM |
| COc1ccccc1-c1ccc(CN2[C@@H](c3ccccc3)C[C@@H]3NC(=O)CCC[C@H]32)cc1 | > 50 µM (inactive) |
| COc1ccc(OC)c(-c2cc(C(=O)Nc3c(C)nn(Cc4ccccc4)c3C)no2)c1 | > 50 µM (inactive) |
| CCC(C)c1ccc(-c2csc(Cn3c(CN4CCN(C)CC4)nc4ccccc4c3=O)n2)cc1 (centres undefined) | 3.29 µM |
| O=C(Cc1ccccc1F)Nc1nc(-c2ccco2)c(-c2ccco2)s1 | > 50 µM (inactive) |
| CCC(=O)Nc1ccccc1-c1nc2ccccc2n(CC(=O)Nc2cc(OC)ccc2OC)c1=O | 18.6 µM |
| O=C(Cn1c(=O)n(Cc2ccc3c(c2)OCO3)c(=O)c2ncccc21)c1ccccc1 | 46.8 µM |
| COc1cccc(-c2cc(C(=O)Nc3cc(C)n(Cc4ccc(Cl)cc4)n3)no2)c1 | 4.67 µM |
| CSc1ncccc1C(=O)OCc1ccc(Br)cc1 | > 50 µM (inactive) |
| CCOc1ccc(-c2nc(C#N)c(N3CCN(C(=O)c4ccccc4C)CC3)o2)cc1 | 3.3 µM |
| O=C(O)c1ccc(C2Cc3c([nH]c(=O)[nH]c3=O)O2)cc1 (centres undefined) | 44.9 µM |
| COc1ccccc1C(=O)NCC(c1ccc2c(c1)CCCN2C)N1CCCC1 (centres undefined) | > 50 µM (inactive) |
| CN(Cc1ccccc1)S(=O)(=O)c1ccc(S(=O)(=O)N2CCN(C(=O)c3cccnc3)CC2)cc1 | 44 µM |
| O=C(/C=C/C=C/C=C/C1CCCCC1)NC1=C[C@@](O)(/C=C/C=C/C=C/C(=O)NC2=C(O)CCC2=O)[C@@H]2O[C@@H]2C1=O | 3.32 µM |
| COc1ccc(NC(=O)C2CC(=O)Nc3c(-c4ccc(Cl)cc4)cnn32)c(OC)c1 (centres undefined) | 9.36 µM |
| O=C(NC1CCN(Cc2ccccc2)CC1)c1[nH]nc2c1COc1ccccc1-2 | > 50 µM (inactive) |

| SMILES | IC50 |
| --- | --- |
| Cc1ccc(O)c(-c2cc(C(=O)Nc3ccccc3Cl)[nH]n2)c1 | 8.32 µM |
| O=C(Cn1nc2c3c4c(sc3ncn2c1=O)CCCCC4)Nc1ccc(Cl)cc1F | 2.08 µM |
| Cc1c(C(=O)Nc2ccc(-c3nnc4n3CCCCC4)cc2)oc2c1ccc1ccccc12 | > 50 µM (inactive) |
| Cc1cccc(NC(=O)Nc2ccc(C)n(CC(=O)Nc3ccccc3)c2=O)c1 | 22.6 µM |
| O=C(COC(=O)c1n[nH]c2ccccc12)Nc1ccc(N2CCCCC2)cc1 | 25.9 µM |
| O=C(Cc1cccc2ccccc12)Nc1nc2ccc(F)cc2s1 | > 50 µM (inactive) |
| O=C(CSc1nnnn1-c1ccccc1)Nc1ccccc1 | 36.8 µM |
| COc1cccc(CNC(=O)c2ccc3c(c2)NC(=O)C2CCCN32)c1OC (centres undefined) | > 50 µM (inactive) |
| COc1ccc(/C=C\c2nccc3c2[nH]c2ccccc23)cc1 | > 50 µM (inactive) |
| O=C(CSc1nnc(-c2ccc3c(c2)OCO3)n1-c1ccccc1)OCC(=O)c1ccccc1 | > 50 µM (inactive) |
| CC(C)Cc1nc2sc3c(NCc4ccccc4)ncnc3c2c2c1COC(C)(C)C2 | 6.77 µM |
| Cc1ccc(CNC(=O)c2ccc(N3C(=O)[C@@H]4Cc5ccccc5CN4C3=O)cc2)cc1 | 34.2 µM |
| Cc1ccc(S(=O)(=O)N2CCC3(CC2)NC(=O)c2ccccc2N3)cc1C | 29.8 µM |
| COc1ccc(CCNC(=O)COc2ncnc3oc(C)c(C)c23)cc1OC | > 50 µM (inactive) |
| Cc1c(-c2nn3c(-c4ccco4)nnc3s2)cccc1[N+](=O)[O-] | 3 µM |
| O=C(/C=C/c1ccco1)c1cccc([N+](=O)[O-])c1 | 22.6 µM |
| COc1ccc(C(=O)Nc2cc(F)c3nc(N4CCOCC4)ccc3c2)c(OC)c1 | 33.9 µM |
| Cc1ccc2nc(NC(=O)CSc3nnc(-c4ccncc4)n3C3CC3)sc2c1 | 3.82 µM |
| Cc1cccc(-n2nc(C)c3c2NC(=O)CC3C(=O)c2cc3ccccc3o2)c1 (centres undefined) | 34.1 µM |
| COc1cc(=O)c(C(=O)Nc2ccc(C#N)cc2)nn1-c1cccc(F)c1 | 28.8 µM |
| CC1OC2CC(O)C1(O)C1=C2C(O)=C(C(N)=O)C(=N)C1=O (centres undefined) | 2.06 µM |
| Cc1nc(-c2ccc3c(c2)nnn3CCN2CCOCC2)no1 | > 50 µM (inactive) |
| Cc1c(CC(=O)N2CCN(c3ncccn3)CC2)c(=O)oc2cc(O)ccc12 | 24.7 µM |
| Cc1noc(-c2cccn(Cc3cccc(C(F)(F)F)c3)c2=O)n1 | > 50 µM (inactive) |
